Source: patent publication US20230143604A1, “QW DOSING OF GIP RECEPTOR AGONIST PEPTIDE COMPOUNDS AND USES THEREOF” (TAKEDA PHARMACEUTICAL COMPANY LIMITED, priority 2020, published 2023)
Like-named read-outs stand apart in the source and are kept apart here. Starred links: 1 amine or outer side, 2 acyl side, 3 side chain; linkers in the order of their positions; H or OH if unused. Non-standard residues stand in square brackets, D forms with d. Residues, ends and D or L forms follow the SMILES beside them. Groups on a side chain read outwards from the residue. *: point of attachment. C18 diacid = O=C(O)CCCCCCCCCCCCCCCCC(=O)*; γGlu = O=C(O)[C@H](CCC(=O)[*:2])N[*:1]; NMeY = CN[C@@H](Cc1ccc(O)cc1)C(=O)O; AEEA = NCCOCCOCC(=O)O; Aib = CC(C)(N)C(=O)O

Columns and labels:
[1] = system: male ferrets; type: in vivo
Procedure: 1. Effect of subcutaneously administered GIP receptor agonist peptide in morphine-induced acute emetic model.
To evaluate the antiemetic effect, the GIP receptor agonist peptides other than natural human GIP are subcutaneously administered into male ferrets 24 hrs before morphine administration. Up to 60 minutes after morphine administration, the condition of the ferrets is monitored to record the frequencies and time points of abdominal contraction motions, vomiting behaviors, licking with the tongue, and fidgety behavior occurring. GIP receptor agonist peptide compounds of the present disclosure dosed at 0.3-10 nmol/kg attenuated the morphine (0.6 mg/kg, s.c.)-induced emesis in the ferrets.
GIP receptor agonist peptides are dissolved with a vehicle (0.09 w/v % tween 80/10% DMSO/saline), respectively, to prepare test solutions. […] of the test solutions and the vehicle are subcutaneously administered to ferrets (4 in each group), respectively. At the time of each of 4 or 24 hours after administration, 0.6 mg/kg of morphine is subcutaneously administered.

[2] = physchem
In short: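 3 mg of peptide treated with 100 μL portions of 200 mM phosphate buffer pH 7.4, sonicating/vortexing up to 1 min, with further buffer added until fully dissolved. Solubility then quantified by HPLC.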

[3] = Dog plasma protein binding (PPB); type: in vitro ADME; conditions: pH 7.4; fraction unbound; dog serum; read-out: Dog PPB (FUplasma)
In short: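 Dog serum replaced human serum, with the protocol and analysis otherwise the same as for human plasma protein binding. Values are reported as fraction unbound (Fu,plasma) expressed as a percentage.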

[4] = Human plasma protein binding (PPB); type: in vitro ADME; conditions: for fraction unbound: both sexes, pH 7.4, human plasma, 1000 nmol/L peptide, ultracentrifugation, read-out: Human PPB (FUplasma); for free unbound peptide in human plasma (in words): judged for once per week (QW) dosing
In short: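 Peptides spiked at 1000 nmol/L into pooled human K2-EDTA plasma adjusted to pH 7.4, incubated 30 min at 37 °C, then ultracentrifuged at ~450,000 g, 4 °C for 3 h. Fu derived from LC-MS/MS (MRM) peak area ratios, supernatant versus plasma.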

[5] = Pharmacokinetics in dog after IV and SC dosing; conditions: in vivo; for half-life: IV 3 nmol/kg, read-out: IV T½ (converted); for MRT last: SC 3 nmol/kg, read-out: SC MRT 0-last
In short: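 Dogs were dosed IV or SC at 1 mL/kg with peptide at 3 nmol/mL in 10% DMSO/0.09% Polysorbate/PBS pH 7.4. K2-EDTA plasma was sampled to 336 h, and peptide was quantified by LCMS to derive half-life.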

[6] = system: female beagle dogs; test: PYY-1119-induced vomiting in dogs; type: in vivo; conditions: 3 nmol/kg s.c., 72 hours post-dose (lower line)
Procedure: The GIPR agonist peptide compounds of the present disclosure or vehicle (0.09% [w/v] Tween 80/10% DMSO/PBS) were administered subcutaneously (sc) at 3-10 nmol/kg to female beagle dogs (10 months old), followed by sc injections with Y2R agonist ((4-imidazolecarbonyl-Ser-D-Hyp-Iva-Pya(4)-Cha-Leu(Me)-Asn-Lys-Aib-Thr-Arg-Gln-Arg-Cha-NH2), […]), […]) at 1 hour or specified hours in the table postdose. Emetic episodes were counted for 2 hours after administration (by blinded analysis).

[7] = system: C57BL/6J mice; test: Oral glucose tolerance test (OGTT); type: in vivo; conditions: 3 nmol/kg s.c., 24 hours before glucose loading
In short: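 Peptide or vehicle given s.c. at 0.1, 0.3, 3 or 10 nmol/kg (peptide-dependent), 24 h before oral 50% dextrose at 5 ml/kg unless stated otherwise. Blood glucose read at 0, 15, 30 and 60 min. % inhibition = (1−(AUC cpd−AUC naïve)/(AUC veh−AUC naïve))×100.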

[8] = molecular target: T1, human GLP-1R (Homo sapiens, UniProt P43220); test: Human GLP1R agonist activity, intracellular cAMP accumulation; type: cell-based; conditions: HEK-293T cells overexpressing human GLP-1R, 1 hr, read-out: Human GLP1R cAMP EC50, HEK293T
T1 construct: HEK-293T cells overexpressing full-length human GLP-1R; FLAG (N); host or cells: HEK-293T
In short: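 Frozen assay-ready cells washed and resuspended at 4×10^5 cells/mL in Krebs Ringer buffer, then incubated with compound 1 hr at room temperature in the dark. cAMP read by HTRF (anti-cAMP antibody, d2-cAMP tracer). Normalised to 1 nm GLP-1 (100%) and DMSO (0%).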

[9] = system: Dogs; type: in vivo; conditions: 10 nmol/kg s.c.
Procedure: Dogs are transferred to an observation cage (700 mm W×700 mm D×700 mm H [W×D×H], without food) on 1 day before each apomorphine challenge. The dogs are weighed by using an electronic balance then test peptide compounds and vehicle will be administrated via the subcutaneous route. Apomorphine is challenged at 8 hr after the administration and emetic events will be monitored for 1 h by video recording. The second apomorphine challenge will be 72 hr after the administration and emetic events will be recorded by the same protocol. Emesis symptoms are continuously recorded using a video camera and stored on a blue ray disc. Observation of symptoms include retching (a rhythmic contraction of the abdomen) and vomiting (vomiting behavior, including the elimination of vomitus or similar behavior). Besides, the combination of retching and vomiting is defined as emesis, and the number of episodes, latency (time elapsed from morphine administration until the onset of the first emesis symptom), duration (time elapsed between the onset of the first and final episodes of emesis), and frequency (number of animals showing emesis/number of experimental animals) of each of these symptoms is calculated. The latency in cases where emesis symptoms are not noted is taken as the maximum value (1 h for apomorphine challenge) at the end of observation. When the duration of the emesis symptoms is less than 1 min, the duration is recorded, for convenience, as 1 min.

T1 sequence (P43220 24-463): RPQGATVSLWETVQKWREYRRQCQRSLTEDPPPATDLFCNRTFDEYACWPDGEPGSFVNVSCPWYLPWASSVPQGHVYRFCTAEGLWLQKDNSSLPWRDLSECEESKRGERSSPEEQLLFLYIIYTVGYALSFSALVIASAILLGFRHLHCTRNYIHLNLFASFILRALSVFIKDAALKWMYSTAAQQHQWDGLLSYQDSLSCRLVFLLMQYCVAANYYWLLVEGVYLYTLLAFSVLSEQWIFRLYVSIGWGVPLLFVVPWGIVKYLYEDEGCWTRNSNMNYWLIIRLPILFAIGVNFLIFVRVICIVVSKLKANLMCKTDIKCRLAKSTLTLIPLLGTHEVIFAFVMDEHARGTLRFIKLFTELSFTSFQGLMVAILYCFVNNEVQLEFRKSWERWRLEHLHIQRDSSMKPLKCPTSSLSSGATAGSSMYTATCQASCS

SMILES: CC[C@H](C)[C@H](NC(=O)[C@H](Cc1ccccc1)NC(=O)[C@@H](NC(=O)CNC(=O)[C@H](CCC(=O)O)NC(=O)C(C)(C)NC(=O)[C@H](Cc1ccc(O)cc1)NC)[C@@H](C)O)C(=O)N[C@@H](CO)C(=O)N[C@@H](CC(=O)O)C(=O)N[C@@H](Cc1ccc(O)cc1)C(=O)N[C@@H](CO)C(=O)N[C@H](C(=O)NC(C)(C)C(=O)N[C@@H](CC(C)C)C(=O)N[C@@H](CC(=O)O)C(=O)N[C@@H](CCCNC(=N)N)C(=O)NC(C)(C)C(=O)N[C@@H](C)C(=O)N[C@@H](CCC(N)=O)C(=O)NC(C)(C)C(=O)N[C@@H](CCCCNC(=O)COCCOCCNC(=O)COCCOCCNC(=O)CC[C@H](NC(=O)CC[C@H](NC(=O)CCCCCCCCCCCCCCCCC(=O)O)C(=O)O)C(=O)O)C(=O)N[C@@H](Cc1ccccc1)C(=O)N[C@H](C(=O)N[C@@H](CC(N)=O)C(=O)N[C@@H](Cc1c[nH]c2ccccc12)C(=O)N[C@@H](CC(C)C)C(=O)N[C@@H](CC(C)C)C(=O)N[C@@H](C)C(=O)N[C@@H](CCC(N)=O)C(=O)N[C@@H](CCCNC(=N)N)C(=O)NCC(=O)O)C(C)C)[C@@H](C)CC [Compound 72, Me-Y-Aib-E-G-T-F-I-S-D-Y-S-I-Aib-L-D-R-Aib-A-Q-Aib-Km-F-V-N-W-L-L-A-Q-R-G-OH] (H-[NMeY][Aib]EGTFISDYSI[Aib]LDR[Aib]AQ[Aib]K([AEEA-AEEA-γGlu-γGlu-C18 diacid])FVNWLLAQRG-OH)
- % inhibition of emetic events at doses (nmol/kg) and timepoints shown in ferret morphine model ([1]; in vivo, sc, 24 h): 100% (3 nmol/kg); 100%
- solubility ([2]; pH 7.4): ≥ 15 mg/mL
- solubility ([2]; pH 7.4, aqueous buffer): ≥ 60 mg/mL
- fraction unbound [3]: 0.0062
- fraction unbound [4]: 0.0036
- free unbound peptide in human plasma (in words) [4]: optimum free unbound peptide
- half-life [5]: 92 h
- MRT last [5]: 125 h

SMILES: CC[C@H](C)[C@H](NC(=O)[C@H](CCCNC(=N)N)NC(=O)[C@H](CC(=O)O)NC(=O)[C@H](CCCCNC(=O)CNC(=O)CNC(=O)CNC(=O)CNC(=O)CNC(=O)CCCCCCCCCCCCCCCCC(=O)O)NC(=O)[C@H](C)NC(=O)[C@@H](NC(=O)[C@H](CO)NC(=O)[C@H](Cc1ccc(O)cc1)NC(=O)[C@H](CC(=O)O)NC(=O)[C@H](CO)NC(=O)[C@@H](NC(=O)[C@H](Cc1ccccc1)NC(=O)[C@@H](NC(=O)CNC(=O)[C@H](CCC(=O)O)NC(=O)C(C)(C)NC(=O)[C@H](Cc1ccc(O)cc1)NC)[C@@H](C)O)[C@@H](C)CC)[C@@H](C)CC)C(=O)N[C@@H](C)C(=O)N[C@@H](CCC(N)=O)C(=O)N[C@@H](CCCNC(=N)N)C(=O)N[C@@H](CC(N)=O)C(=O)N[C@@H](Cc1ccccc1)C(=O)N[C@H](C(=O)N[C@@H](CCC(=O)O)C(=O)N[C@@H](Cc1c[nH]c2ccccc12)C(=O)N[C@@H](CC(C)C)C(=O)N[C@@H](CC(C)C)C(=O)N[C@@H](C)C(=O)N[C@@H](CCC(N)=O)C(=O)N[C@@H](CO)C(=O)N1CCC[C@H]1C(=O)N[C@@H](CO)C(=O)N[C@@H](CO)C(=O)NCC(=O)N[C@@H](C)C(=O)N1CCC[C@H]1C(=O)N1CCC[C@H]1C(=O)N1CCC[C@H]1C(=O)N[C@@H](CO)C(=O)O)C(C)C [Compound 179]
- Inhibition (%) of PYY-1119-induced emetic event [6]: 45% (3 nmol/kg)
- solubility ([2]; pH 7.4, aqueous buffer, pH 7.4 Phosphate Buffer - Solubility, 200 mM Phosphate buffer pH 7.4): ≥ 30 mg/mL
- solubility ([2]; pH 7.4, solubility in phosphate buffer at pH 7.4, 200 mM phosphate buffer pH 7.4): ≥ 15 mg/mL
- Oral Glucose Tolerance Test Percent decrease in blood glucose AUC (%) over 60 mins [7]: 58% (3 nmol/kg)

SMILES: CC[C@H](C)[C@H](NC(=O)[C@H](CO)NC(=O)[C@H](Cc1ccc(O)cc1)NC(=O)[C@H](CC(=O)O)NC(=O)[C@H](CO)NC(=O)[C@@H](NC(=O)[C@H](Cc1ccccc1)NC(=O)[C@@H](NC(=O)CNC(=O)[C@H](CCC(=O)O)NC(=O)C(C)(C)NC(=O)[C@H](Cc1ccc(O)cc1)NC)[C@@H](C)O)[C@@H](C)CC)C(=O)N[C@@H](C)C(=O)N[C@@H](CCCCNC(=O)CNC(=O)CNC(=O)CNC(=O)CNC(=O)CNC(=O)CCCCCCCCCCCCCCCCC(=O)O)C(=O)N[C@@H](CC(=O)O)C(=O)N[C@@H](CCCNC(=N)N)C(=O)NC(C)(C)C(=O)N[C@@H](C)C(=O)N[C@@H](CCC(N)=O)C(=O)NC(C)(C)C(=O)N[C@@H](CC(=O)O)C(=O)N[C@@H](Cc1ccccc1)C(=O)N[C@H](C(=O)N[C@@H](CC(N)=O)C(=O)N[C@@H](Cc1c[nH]c2ccccc12)C(=O)N[C@@H](CC(C)C)C(=O)N[C@@H](CC(C)C)C(=O)N[C@@H](C)C(=O)N[C@@H](CCC(N)=O)C(=O)N[C@@H](CO)C(=O)N1CCC[C@H]1C(=O)NCC(=O)O)C(C)C [Compound 84, Me-Y-Aib-E-G-T-F-I-S-D-Y-S-I-A-Km-D-R-Aib-A-Q-Aib-D-F-V-N-W-L-L-A-Q-S-P-G-OH]
- % inhibition of emetic events at doses (nmol/kg) and timepoints shown in ferret morphine model ([1]; 24 hrs, 1 nmol/kg s.c.): 24 hrs: 65% (1 nmol/kg);
- effect on morphine-induced emesis in ferrets (in words) ([1]; morphine 0.6 mg/kg s.c., peptides dosed at 0.3-10 nmol/kg s.c.): effective in completely inhibiting the frequency of emesis
- solubility ([2]; pH 7.4): ≥ 15 mg/mL
- solubility ([2]; pH 7.4, aqueous buffer): ≥ 60 mg/mL
- fraction unbound [3]: 0.0003
- fraction unbound [4]: 0.0009
- free unbound peptide in human plasma (in words) [4]: optimum free unbound peptide
- EC50 [8]: 58.9 nM
- half-life [5]: 62 h
- MRT last [5]: 82 h
- Oral Glucose Tolerance Test Percent decrease in blood glucose AUC (%) over 60 mins [7]: 72% (3 nmol/kg)

SMILES: CC[C@H](C)[C@H](NC(=O)[C@H](Cc1ccccc1)NC(=O)[C@@H](NC(=O)CNC(=O)[C@H](CCC(=O)O)NC(=O)C(C)(C)NC(=O)[C@H](Cc1ccc(O)cc1)NC)[C@@H](C)O)C(=O)N[C@@H](CO)C(=O)N[C@@H](CC(=O)O)C(=O)N[C@@H](Cc1ccc(O)cc1)C(=O)N[C@@H](CO)C(=O)N[C@H](C(=O)NC(C)(C)C(=O)N[C@@H](CCCCNC(=O)CNC(=O)CNC(=O)CNC(=O)CNC(=O)CNC(=O)CCCCCCCCCCCCCCCCC(=O)O)C(=O)N[C@@H](CC(=O)O)C(=O)N[C@@H](CCCNC(=N)N)C(=O)NC(C)(C)C(=O)N[C@@H](C)C(=O)N[C@@H](CCC(N)=O)C(=O)NC(C)(C)C(=O)N[C@@H](CC(=O)O)C(=O)N[C@@H](Cc1ccccc1)C(=O)N[C@H](C(=O)N[C@@H](CCC(=O)O)C(=O)N[C@@H](Cc1c[nH]c2ccccc12)C(=O)N[C@@H](CC(C)C)C(=O)N[C@@H](CC(C)C)C(=O)N[C@@H](C)C(=O)N[C@@H](CCC(N)=O)C(=O)N[C@@H](CCCNC(=N)N)C(=O)NCC(=O)O)C(C)C)[C@@H](C)CC [Compound 108]
- Inhibition (%) of PYY-1119-induced emetic event [6]: 96% (3 nmol/kg)
- solubility ([2]; pH 7.4): ≥ 15 mg/mL
- solubility ([2]; pH 7.4, aqueous buffer): ≥ 60 mg/mL
- % inhibition of emetic events at doses (nmol/kg) shown in dog apomorphine model ([9]; after 8 hrs (upper)): 50% (10 nmol/kg)
- % inhibition of emetic events at doses (nmol/kg) shown in dog apomorphine model ([9]; after 72 hours (lower)): 54% (10 nmol/kg)
- EC50 [8]: 41.7 nM
- Oral Glucose Tolerance Test Percent decrease in blood glucose AUC (%) over 60 mins [7]: 65% (3 nmol/kg)
